The source of these data is patent publication US20250320206A1, “STAT6 DEGRADERS” (Gilead Sciences, Inc., priority 2024, published 2025).

The target of one test is T1, STAT6 (Homo sapiens, UniProt P42226).
T1 construct: These cells express endogenous STAT6; host or cells: HeLa LgBiT clone 4.14
T1 sequence (P42226 1-847): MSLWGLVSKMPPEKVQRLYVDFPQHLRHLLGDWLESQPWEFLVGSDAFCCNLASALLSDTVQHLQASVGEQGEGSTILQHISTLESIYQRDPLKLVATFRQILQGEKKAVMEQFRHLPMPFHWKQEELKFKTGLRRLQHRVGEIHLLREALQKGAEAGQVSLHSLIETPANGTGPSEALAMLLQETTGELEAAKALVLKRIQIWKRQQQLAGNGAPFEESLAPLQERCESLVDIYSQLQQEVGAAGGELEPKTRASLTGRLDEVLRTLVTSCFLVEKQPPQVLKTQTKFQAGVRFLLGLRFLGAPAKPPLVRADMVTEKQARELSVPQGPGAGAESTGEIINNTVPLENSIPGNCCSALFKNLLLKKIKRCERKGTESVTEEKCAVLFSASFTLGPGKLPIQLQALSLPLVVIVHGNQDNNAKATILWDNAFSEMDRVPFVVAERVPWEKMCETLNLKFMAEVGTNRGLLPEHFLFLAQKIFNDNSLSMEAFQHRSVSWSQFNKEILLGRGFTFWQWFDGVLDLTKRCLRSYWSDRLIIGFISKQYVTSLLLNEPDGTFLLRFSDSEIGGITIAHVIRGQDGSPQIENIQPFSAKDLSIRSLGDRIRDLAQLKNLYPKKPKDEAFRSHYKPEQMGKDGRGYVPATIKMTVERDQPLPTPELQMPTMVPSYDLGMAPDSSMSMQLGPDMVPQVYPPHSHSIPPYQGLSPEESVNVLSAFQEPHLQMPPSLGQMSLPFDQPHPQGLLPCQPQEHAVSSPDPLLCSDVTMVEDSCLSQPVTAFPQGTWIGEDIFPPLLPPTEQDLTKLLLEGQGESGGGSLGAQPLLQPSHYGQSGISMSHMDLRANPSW
Nature of the test: Stat6 Degrader Assay (HiBiT based, HeLa LgBiT clone 4.14). In kind it is cell-based. The note with it: HeLa LgBiT clone 4.14 HiBiT-STAT6, 4-24 h incubation; values given for compounds with >80% Emax; geometric mean; read-out: STAT6 degradation DC50. The gist of the method:
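Luminescence from HiBiT-STAT6 complementing stably expressed LgBiT in HeLa clone 4.14 reports remaining STAT6 protein. Cells (5000/well) exposed to compound for 4-24 h at 37° C; read 0.5 h after Nano-Glo addition. 100% degradation window set with 50 μM terfenadine; percent degradation plotted against concentration.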

Test [1] deals with Eotaxin-3 release in human whole blood stimulated with IL-4. Nature of the test: Human Whole Blood Eotaxin-3 Assay (IL-4 stimulated eotaxin-3 release). The format is cell-based. Conditions: IL-4 stimulation, 48 h, values given for compounds with >80% Emax, geometric mean. The gist of the method:
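Eotaxin-3 (CCL26) release measured by MSD kit in plasma supernatant after 48 h IL-4 stimulation ([…]) of human whole blood. Compounds added in triplicate 4-fold dilutions 2 h before stimulation; 0.5% DMSO final, 37° C, 5% CO2.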

As for `CNc1cc(=O)n(-c2ccnc3c2cc([C@H](C)N2CC=C(c4c(C)cc(C(=O)N5CCC(CN6CCN(Cc7ccc8c(c7)n(C)c(=O)n8C7CCC(=O)NC7=O)CC6)CC5)cc4F)CC2)n3C)cc1F` (stereo partly drawn) [Example 3u13, 3-(5-((4-((1-(3-fluoro-4-(1-((S)-1-(4-(5-fluoro-4-(methylamino)-2-oxopyridin-1 (2H)-yl)-1-methyl-1H-pyrrolo[2,3-b]pyridin-2-yl)ethyl)-1,2,3,6-tetrahydropyridin-4-yl)-5-methylbenzoyl)-piperidin-4-yl)methyl)piperazin-1-yl)methyl)-3-methyl-2-oxo-2,3-dihydro-1H-benzo[d]imidazol-1-yl)piperidine-2,6-dione], the half-maximal degradation concentration (DC50) on STAT6 came to 0.7 nM. In test [1], this molecule yielded an EC50 of 1 nM.

Regarding `CNc1cc(=O)n(-c2ccnc3c2cc([C@H](C)N2CC=C(c4c(C)cc(C(=O)N(C)c5ccc(N6CCC(O)(Cc7ccc8c(c7)C7(CC7)C(=O)N8C7CCC(=O)NC7=O)CC6)nc5)cc4F)CC2)n3C)cc1F` (stereo partly drawn) [Example 3u240, N-(6-(4-((1′-(2,6-dioxopiperidin-3-yl)-2′-oxospiro[cyclopropane-1,3′-indolin]-5′-yl)methyl)-4-hydroxypiperidin-1-yl)pyridin-3-yl)-3-fluoro-4-(1-((S)-1-(4-(5-fluoro-4-(methylamino)-2-oxopyridin-1 (2H)-yl)-1-methyl-1H-pyrrolo[2,3-b]pyridin-2-yl)ethyl)-1,2,3,6-tetrahydropyridin-4-yl)-N,5-dimethylbenzamide], at STAT6, the half-maximal degradation concentration (DC50) stood at 1.1 nM. In test [1], this molecule showed a half-maximal effective concentration (EC50) of 1.3 nM.

Take `CNc1ccn(-c2ccnc3c2cc([C@H](C)N2CC=C(c4c(C)cc(C(=O)N5CCC(CN6CCN(Cc7cc8c(cc7F)n([C@@H]7CCC(=O)NC7=O)c(=O)n8C)CC6)CC5)cc4F)CC2)n3C)c(=O)c1` (single isomer, unassigned) [Example 3u12]: the DC50 at STAT6 is 0.6 nM. The same molecule yielded a concentration for a half-maximal effect (EC50) in test [1] of 0.5 nM.

With `CNc1ccn(-c2ccnc3c2cc(CN2CC=C(c4c(F)cc(C(=O)N5CCC(CN6CCN(Cc7ccc8c(c7)n(C7CC7)c(=O)n8[C@@H]7CCC(=O)NC7=O)C[C@@H]6C)CC5)cc4F)CC2)n3C)c(=O)c1` (single isomer, unassigned) [Example 3u73], the DC50 on STAT6 came to 6.8 nM. The molecule also yielded an EC50 in test [1] of 2.4 nM.

Turning to `CNc1cc(=O)n(-c2ccnc3c2cc([C@H](C)N2CC=C(c4c(C)cc(C(=O)N5CCC(CN6CCN(c7ccc8c(c7)n(C)c(=O)n8[C@@H]7CCC(=O)NC7=O)CC6)CC5)cc4F)CC2)n3C)cc1F` (single isomer, unassigned) [Example 3u297], on STAT6, the DC50 is 2.2 nM. In addition, the response in test [1] was half-maximal at 3.2 nM (EC50).

For the molecule `CNc1ccn(-c2ccnc3c2cc(CN2CC=C(c4c(F)cc(C(=O)N5CCC(CN6CCN(Cc7ccc8c(c7)C(C)(C)C(=O)N8C7CCC(=O)NC7=O)C[C@@H]6C)CC5)cc4F)CC2)n3C)c(=O)c1` (stereo partly drawn) [Example 3u45, 3-(5-(((S)-4-((1-(3,5-difluoro-4-(1-((1-methyl-4-(4-(methylamino)-2-oxopyridin-1 (2H)-yl)-1H-pyrrolo[2,3-b]pyridin-2-yl)methyl)-1,2,3,6-tetrahydropyridin-4-yl)benzoyl)piperidin-4-yl)methyl)-3-methylpiperazin-1-yl)methyl)-3,3-dimethyl-2-oxoindolin-1-yl)piperidine-2,6-dione], the DC50 on STAT6 stood at 3.9 nM. This molecule also returned an EC50 in test [1] of 4.5 nM.

For `CNc1cc(=O)n(-c2ccnc3c2cc([C@H](C)N2CC=C(c4c(C)cc(C(=O)N5CCC(CN6CCN(Cc7ccc8c(c7)C7(CCC7)C(=O)N8C7CCC(=O)NC7=O)C[C@@H]6C)CC5)cc4F)CC2)n3C)cc1F` (stereo partly drawn) [Example 3u309, 3-(5′-(((S)-4-((1-(3-fluoro-4-(1-((S)-1-(4-(5-fluoro-4-(methylamino)-2-oxopyridin-1 (2H)-yl)-1-methyl-1H-pyrrolo[2,3-b]pyridin-2-yl)ethyl)-1,2,3,6-tetrahydropyridin-4-yl)-5-methylbenzoyl)piperidin-4-yl)methyl)-3-methylpiperazin-1-yl)methyl)-2′-oxospiro[cyclobutane-1,3′-indolin]-1′-yl)piperidine-2,6-dione], on STAT6, the 50% degradation concentration (DC50) is 2.2 nM. The EC50 in test [1] was 4.8 nM.

With `CNc1ccn(-c2ccnc3c2cc([C@H](C)N2CC=C(c4c(C)cc(C(=O)N5CCC(CN6CCN(c7cc8c(cc7F)n([C@H]7CCC(=O)NC7=O)c(=O)n8C)CC6)CC5)cc4F)CC2)n3C)c(=O)c1` (single isomer, unassigned) [Example 3u307], the half-maximal degradation concentration (DC50) on STAT6 was found to be 1.4 nM. The molecule also displayed a half-maximal effective concentration (EC50) in test [1] of 1.1 nM.

With `Cc1cc(C(=O)N2CCC(CN3CCN(Cc4ccc5c(c4)n(C)c(=O)n5C4CCC(=O)NC4=O)C[C@@H]3C)CC2)cc(F)c1C1CCN(Cc2cc3c(-n4ccc5c(c4=O)CCN5)ccnc3n2C)CC1` (stereo partly drawn) [Example 3u39, 3-(5-(((S)-4-((1-(3-fluoro-5-methyl-4-(1-((1-methyl-4-(4-oxo-1,2,3,4-tetrahydro-5H-pyrrolo[3,2-c]pyridin-5-yl)-1H-pyrrolo[2,3-b]pyridin-2-yl)methyl)piperidin-4-yl)benzoyl)piperidin-4-yl)methyl)-3-methylpiperazin-1-yl)methyl)-3-methyl-2-oxo-2,3-dihydro-1H-benzo[d]imidazol-1-yl)piperidine-2,6-dione], the 50% degradation concentration (DC50) on STAT6 stood at 4.3 nM. In addition, the midpoint of the response in test [1], the EC50, lay at 2.3 nM.

For `Cc1cc(C(=O)N2CCC(CN3CCN(Cc4ccc5c(c4)n(C)c(=O)n5C4CCC(=O)NC4=O)CC3)CC2)cc(F)c1C1=CCN([C@@H](C)c2cc3c(-n4cc(F)c5c(c4=O)CCN5)ccnc3n2C)CC1` (stereo partly drawn) [Example 3u85, 3-(5-((4-((1-(3-fluoro-4-(1-((S)-1-(4-(7-fluoro-4-oxo-1,2,3,4-tetrahydro-5H-pyrrolo[3,2-c]pyridin-5-yl)-1-methyl-1H-pyrrolo[2,3-b]pyridin-2-yl)ethyl)-1,2,3,6-tetrahydropyridin-4-yl)-5-methylbenzoyl)piperidin-4-yl)methyl)piperazin-1-yl)methyl)-3-methyl-2-oxo-2,3-dihydro-1H-benzo[d]imidazol-1-yl)piperidine-2,6-dione], the DC50 on STAT6 was 3.1 nM. The molecule further showed an EC50 in test [1] of 5.2 nM.

In the case of `C[C@H]1CN(Cc2ccc3c(c2)C(C)(C)C(=O)N3[C@H]2CCC(=O)NC2=O)CCN1CC1CCN(C(=O)c2ccc(C3CCN([C@@H](C)c4cc5c(-n6ccc7c(c6=O)CCN7)ccnc5n4C)CC3)cc2)CC1` (single isomer, unassigned) [Example 3u185], on STAT6, the DC50 turned out to be 2.8 nM. This molecule displayed a half-maximal effective concentration (EC50) in test [1] of 2.3 nM.

For `C[C@H]1CN(Cc2ccc3c(c2)C2(CC2)C(=O)N3C2CCC(=O)NC2=O)CCN1CC1CCN(C(=O)c2cc(F)c(C3CCN(Cc4cc5c(-n6ccc7c(c6=O)CCN7)ccnc5n4C)CC3)c(F)c2)CC1` (stereo partly drawn) [Example 3u69, 3-(5′-(((S)-4-((1-(3,5-difluoro-4-(1-((1-methyl-4-(4-oxo-1,2,3,4-tetrahydro-5H-pyrrolo[3,2-c]pyridin-5-yl)-1H-pyrrolo[2,3-b]pyridin-2-yl)methyl)piperidin-4-yl)benzoyl)piperidin-4-yl)methyl)-3-methylpiperazin-1-yl)methyl)-2′-oxospiro[cyclopropane-1,3′-indolin]-1′-yl)piperidine-2,6-dione], the DC50 at STAT6 was found to be 1.5 nM. For the same molecule, the response in test [1] was half-maximal at 2.4 nM (EC50).

As for `CNc1ccn(-c2ccnc3c2cc(CN2CCC(c4c(F)cc(C(=O)N5CCC(CN6CCN(Cc7ccc8c(c7)n(C)c(=O)n8[C@H]7CCC(=O)NC7=O)CC6)CC5)cc4F)CC2)n3C)c(=O)c1` (single isomer, unassigned) [Example 3u30], the DC50 on STAT6 came out at 2.2 nM. Besides, the EC50 in test [1] came out at 1.6 nM.

On to `CNc1cc(=O)n(-c2ccnc3c2cc([C@H](C)N2CC=C(c4c(C)cc(C(=O)N5CCC(CN6CCN(Cc7ccc8c(c7)n(C7CC7)c(=O)n8C7CCC(=O)NC7=O)C[C@@H]6C)CC5)cc4F)CC2)n3C)cc1F` (stereo partly drawn) [Example 3u118, 3-(3-cyclopropyl-5-(((S)-4-((1-(3-fluoro-4-(1-((S)-1-(4-(5-fluoro-4-(methylamino)-2-oxopyridin-1 (2H)-yl)-1-methyl-1H-pyrrolo[2,3-b]pyridin-2-yl)ethyl)-1,2,3,6-tetrahydropyridin-4-yl)-5-methylbenzoyl)piperidin-4-yl)methyl)-3-methylpiperazin-1-yl)methyl)-2-oxo-2,3-dihydro-1H-benzo[d]imidazol-1-yl)piperidine-2,6-dione], for which, on STAT6, the DC50 was 1.2 nM. This molecule came in with an EC50 in test [1] of 2.2 nM.
